“And” between values parts separate entries of the source, which are not always exact repeats. Identical values can stand only once.
What was measured:
[1] = tested on: FLAG-γ1-containing AMPK complexes; set-up: method as in PMID 26542978; conditions: ADP 300 µM to 3 mM; cited from earlier work
[2] = biological target: T1, human α2β2γ1 complex, CBS1 mutant (L129D/V130D) (Homo sapiens, UniProt P54619+P54646, L129D/V130D); assay: Allosteric activation of CBS1 mutant human α2β2γ1 AMPK complex; format: biochemical
T1 construct: made in house; host or cells: Escherichia coli
Text: To study allosteric activation with a more well-defined AMPK complex, and to study the effects of mutations in individual adenine nucleotide-binding sites on the γ subunit, we expressed a human α2β2γ1 complex in Escherichia coli and purified it utilizing the polyhistidine tag at the N-terminus of the α2 subunit. […] However, it had not been co-expressed with an N-myristoyl transferase so would not have been N-myristoylated on the β2 subunit. The complex was expressed not only with the WT γ1 sequence but also with mutations affecting hydrophobic residues previously shown to be involved in binding of the adenine moieties of nucleotides at CBS1 (L129D/V130D), CBS3 (V276G/L277G) and CBS4 (I312G). All four complexes co-purified as heterotrimeric 1:1:1 complexes as expected, and were phosphorylated and activated equally well either by CaMKK2 or the LKB1: STRADα:MO25α complex (Supplementary Figure S2). For the studies described below we phosphorylated Thr172 using a GST-tagged CaMKK2 and repurified AMPK using size exclusion chromatography and a glutathione-Sepharose column, which remove CaMKK2.
Figure 4. Allosteric activation of WT and mutant human α2β2γ1 AMPK complex by AMP and ADP at three different concentrations of ATP. The α2β2γ1 complex was phosphorylated on Thr172 prior to assay using CaMKK2. The γ1 subunit was either (A/E): WT; (B/F): a CBS1 mutant (L129D/V130D); (C/G): a CBS3 mutant (V276G/L277G); (D/H): a CBS4 mutant (I312G). Results are means of duplicate assays ± SD; error bars are not shown if they were smaller than the symbols used for mean values. Assays and curve fitting were as in Figure 1 at either 0.2 mM (left panels) or 5 mM (right panels) ATP. Best-fit values for all parameters used to generate the curves are listed in Supplementary Table S1.
Sources of antibodies were as described: pThr172 (AMPK-α: Cell Signaling Technologies, Danvers, MA, U.S.A., Cat# 2535), AMPK-α2 [22]. Rat liver AMPK was purified as described previously. Plasmid encoding human (His)6-tagged AMPK (α2β2γ1, bacterially expressed) generated as in [23], was a gift from AstraZeneca, Cambridge, U.K. The L129D/V130D (CBS1), V276G/L277G (CBS3) and I312G (CBS4) mutations in the α2β2γ1 complex were generated using the Quikchange II site-directed mutagenesis kit (Agilent Technologies) and confirmed by DNA sequencing. Human GST-tagged α2 kinase domain (1–310), LKB1:STRAD-α:MO25-α complexes, GST-tagged CaMKK2 [26], and PPM1A (PP2Cα) were produced as described. Bacterially expressed heterotrimers were activated by phosphorylation of Thr172 by GST-tagged CaMKK2 in the presence of ATP, and CaMKK2 was subsequently removed by passage through glutathione-Sepharose. Human GST-tagged α2 kinase domain was activated in a similar manner except that human (His)6-tagged LKB1:STRAD-α:MO25-α complex was used and removed after activation via passage through a His-Trap column. Recombinant human 5′-nucleotidase, CD73, Cat # 5795-EN-01, was from R&D systems (Minneapolis, MN, U.S.A.).
AMPK assays measured the transfer of radioactivity from [γ-^33P]ATP to a peptide substrate, which was separated from unreacted ATP by binding to P81 paper. This assay was described previously except that we used [γ-^33P] rather than [γ-^32P]ATP. In some assays (specified in Figure legends) the concentration of ATP was increased from 0.2 to 1 or 5 mM ATP, with MgCl2 concentrations maintained at a constant 4.8 mM excess above the concentration of ATP [19]. Where allosteric activation by AMP or ADP was being studied, we used the SAMS peptide as substrate. For all other assays the AMARA peptide was used.

T1 sequence (P54619 whole entry L129D/V130D): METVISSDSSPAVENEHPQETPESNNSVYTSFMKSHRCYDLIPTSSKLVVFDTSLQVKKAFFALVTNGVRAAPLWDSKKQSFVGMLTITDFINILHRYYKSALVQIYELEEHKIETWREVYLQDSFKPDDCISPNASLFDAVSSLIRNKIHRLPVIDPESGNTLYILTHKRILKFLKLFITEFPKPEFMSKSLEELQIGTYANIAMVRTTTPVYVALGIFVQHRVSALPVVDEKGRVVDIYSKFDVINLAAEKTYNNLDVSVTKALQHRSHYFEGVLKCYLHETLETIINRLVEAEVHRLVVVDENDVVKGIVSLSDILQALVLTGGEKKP
T1 sequence (P54646 whole entry): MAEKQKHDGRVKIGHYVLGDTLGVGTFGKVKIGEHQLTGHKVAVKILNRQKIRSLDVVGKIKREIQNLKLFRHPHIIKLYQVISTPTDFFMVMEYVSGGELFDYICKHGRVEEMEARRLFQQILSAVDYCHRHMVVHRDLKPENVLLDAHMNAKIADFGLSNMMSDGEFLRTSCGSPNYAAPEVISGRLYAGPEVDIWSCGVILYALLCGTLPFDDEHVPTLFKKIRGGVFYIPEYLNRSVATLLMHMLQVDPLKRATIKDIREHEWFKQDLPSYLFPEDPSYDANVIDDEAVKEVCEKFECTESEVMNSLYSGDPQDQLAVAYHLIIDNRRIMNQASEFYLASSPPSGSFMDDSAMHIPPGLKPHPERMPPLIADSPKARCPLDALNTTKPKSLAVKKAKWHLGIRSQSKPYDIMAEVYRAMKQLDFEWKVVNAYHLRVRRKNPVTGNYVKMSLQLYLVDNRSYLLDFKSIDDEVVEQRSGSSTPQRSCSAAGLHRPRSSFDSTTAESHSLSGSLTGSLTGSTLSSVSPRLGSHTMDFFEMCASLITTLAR
T1 sequence (O43741 whole entry partner): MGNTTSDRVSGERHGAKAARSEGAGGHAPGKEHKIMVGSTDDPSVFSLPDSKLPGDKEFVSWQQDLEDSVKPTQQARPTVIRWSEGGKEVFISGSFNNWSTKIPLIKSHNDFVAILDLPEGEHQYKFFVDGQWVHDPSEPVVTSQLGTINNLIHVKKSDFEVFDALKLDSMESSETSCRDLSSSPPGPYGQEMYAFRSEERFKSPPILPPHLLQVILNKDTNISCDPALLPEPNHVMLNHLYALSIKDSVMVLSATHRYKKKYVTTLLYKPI

Compound | stimulation of activation by LKB1 [1] [fold] | Activation (maximal) ([2]; 0.2 mM ATP) | IC50 ([2]; 0.2 mM ATP) [µM] | Activation (maximal) ([2]; 5.0 mM ATP) | EC50 ([2]; 0.2 mM ATP) [µM] | IC50/EC50 ([2]; 0.2 mM ATP) | EC50 ([2]; 5.0 mM ATP) [µM] | IC50 ([2]; 5.0 mM ATP) [µM] | IC50/EC50 ([2]; 5.0 mM ATP)
Nc1ncnc2c1ncn2[C@@H]1O[C@H](COP(=O)(O)OP(=O)(O)O)[C@@H](O)[C@H]1O [ADP] | < 2 | did not cause allosteric activation and none | 1000 | abolished allosteric activation and essentially abolished allosteric activation and none |  |  |  |  | 
Nc1ncnc2c1ncn2[C@@H]1O[C@H](COP(=O)(O)O)[C@@H](O)[C@H]1O [AMP] |  | 2.4 (2.3-2.4) fold | 3400 | 2.4 fold and 2.3 fold | 1.6 | 2100 | 19 | 52000 | 2700
